Tested on: MIA PaCa-2 cells
Experiment: Bru-seq analysis for nascent RNA synthesis (log2FC of genes, GSEA gene sets)
Format: cell-based, human
Settings: 4 h
[1] = gene set HALLMARK_IL2_STAT5_SIGNALING
[2] = gene set HALLMARK_IL6_JAK_STAT3_SIGNALING
[3] = gene set HALLMARK_MTORC1_SIGNALING
[4] = gene set HALLMARK_OXIDATIVE_PHOSPHORYLATION
[5] = gene set HALLMARK_PI3K_AKT_MTOR_SIGNALING
[6] = gene set HALLMARK_TNFA_SIGNALING_VIA_NFKB
[7] = gene set HALLMARK_UNFOLDED_PROTEIN_RESPONSE
[8] = gene set HALLMARK_UV_RESPONSE_UP
[9] = gene set HALLMARK_XENOBIOTIC_METABOLISM
[10] = gene set HELLER_SILENCED_BY_METHYLATION_DN
[11] = gene set KAN_RESPONSE_TO_ARSENIC_TRIOXIDE
[12] = gene set KEGG_ACUTE_MYELOID_LEUKEMIA
[13] = gene set KEGG_ADIPOCYTOKINE_SIGNALING_PATHWAY
[14] = gene set KEGG_ALDOSTERONE_REGULATED_SODIUM_REABSORPTION
[15] = gene set KEGG_ANTIGEN_PROCESSING_AND_PRESENTATION
[16] = gene set KEGG_CITRATE_CYCLE_TCA_CYCLE
[17] = gene set KEGG_ENDOMETRIAL_CANCER
[18] = gene set KEGG_FATTY_ACID_METABOLISM
[19] = gene set KEGG_FRUCTOSE_AND_MANNOSE_METABOLISM
[20] = gene set KEGG_GLYCEROLIPID_METABOLISM
[21] = gene set KEGG_GLYCOLYSIS_GLUCONEOGENESIS
[22] = gene set KEGG_INSULIN_SIGNALING_PATHWAY
[23] = gene set KEGG_MAPK_SIGNALING_PATHWAY
[24] = gene set KEGG_MTOR_SIGNALING_PATHWAY
[25] = gene set KEGG_OXIDATIVE_PHOSPHORYLATION
[26] = gene set KEGG_PARKINSONS_DISEASE
[27] = gene set KEGG_PORPHYRIN_AND_CHLOROPHYLL_METABOLISM
[28] = gene set KEGG_PPAR_SIGNALING_PATHWAY
[29] = gene set KEGG_PYRUVATE_METABOLISM
[30] = gene set KEGG_SNARE_INTERACTIONS_IN_VESICULAR_TRANSPORT
[31] = gene set KEGG_SYSTEMIC_LUPUS_ERYTHEMATOSUS
[32] = gene set KEGG_VALINE_LEUCINE_AND_ISOLEUCINE_DEGRADATION
[33] = gene set PODAR_RESPONSE_TO_ADAPHOSTIN_UP
[34] = gene set REACTOME_CHOLESTEROL_BIOSYNTHESIS
[35] = gene set REACTOME_RNA_POL_I_PROMOTER_OPENING
[36] = gene set REACTOME_UNFOLDED_PROTEIN_RESPONSE
[37] = gene set SCHMIDT_POR_TARGETS_IN_LIMB_BUD_UP
[38] = gene set WILCOX_RESPONSE_TO_PROGESTERONE_UP
[39] = gene set ZHANG_TLX_TARGETS_36HR_UP
[40] = top downregulated genes, MIA PaCa-2 cells

Q: How did the ES [1] turn out when `CCN(CC)CCCC(C)Nc1cnc(C(=O)Nc2cc(C)cc3cccnc23)cn1` (stereo not shown) [J4, 5-((5-(diethylamino)pentan-2-yl)amino)-N-(6-methylquinolin-8-yl)pyrazine-2-carboxamide] was run?
A: 0.424

Q: And the NES [1]?
A: 1.597

Q: What about the ES [2] of the same molecule?
A: 0.443

Q: And the NES [2]?
A: 1.405

Q: What about the ES [3] of the same molecule?
A: 0.626

Q: What about the NES [3] of the same molecule?
A: 2.450

Q: What about the ES (gene set HALLMARK_MYOGENESIS) of the same molecule?
A: 0.541

Q: What about the NES (gene set HALLMARK_MYOGENESIS) of the same molecule?
A: 1.885

Q: What about the ES [4] of the same molecule?
A: 0.403

Q: And the NES [4]?
A: 1.601

Q: And the ES (gene set HALLMARK_P53_PATHWAY)?
A: 0.565

Q: What about the NES (gene set HALLMARK_P53_PATHWAY) of the same molecule?
A: 2.171

Q: What about the ES (gene set HALLMARK_PEROXISOME) of the same molecule?
A: 0.457

Q: And the NES (gene set HALLMARK_PEROXISOME)?
A: 1.612

Q: And the ES [5]?
A: 0.566

Q: What about the NES [5] of the same molecule?
A: 2.033

Q: What about the ES [6] of the same molecule?
A: 0.536

Q: What about the NES [6] of the same molecule?
A: 2.043

Q: And the ES [7]?
A: 0.582

Q: What about the NES [7] of the same molecule?
A: 2.173

Q: And the ES [8]?
A: 0.478

Q: And the NES [8]?
A: 1.769

Q: And the ES [9]?
A: 0.409

Q: And the NES [9]?
A: 1.503

Q: And the ES [10]?
A: 0.714

Q: And the NES [10]?
A: 2.396

Q: And the ES (gene set HORTON_SREBF_TARGETS)?
A: 0.911

Q: What about the NES (gene set HORTON_SREBF_TARGETS) of the same molecule?
A: 2.446

Q: And the ES [11]?
A: 0.655

Q: And the NES [11]?
A: 2.270

Q: What about the ES [12] of the same molecule?
A: 0.524

Q: And the NES [12]?
A: 1.701

Q: And the ES [13]?
A: 0.547

Q: What about the NES [13] of the same molecule?
A: 1.770

Q: What about the ES [14] of the same molecule?
A: 0.556

Q: And the NES [14]?
A: 1.480

Q: What about the ES [15] of the same molecule?
A: 0.536

Q: And the NES [15]?
A: 1.506

Q: And the ES [16]?
A: 0.561

Q: And the NES [16]?
A: 1.683

Q: And the ES [17]?
A: 0.482

Q: And the NES [17]?
A: 1.543

Q: And the ES [18]?
A: 0.507

Q: What about the NES [18] of the same molecule?
A: 1.505

Q: What about the ES [19] of the same molecule?
A: 0.547

Q: What about the NES [19] of the same molecule?
A: 1.529

Q: And the ES [20]?
A: 0.573

Q: What about the NES [20] of the same molecule?
A: 1.640

Q: And the ES [21]?
A: 0.578

Q: And the NES [21]?
A: 1.735

Q: And the ES [22]?
A: 0.455

Q: And the NES [22]?
A: 1.663

Q: What about the ES (gene set KEGG_LYSOSOME) of the same molecule?
A: 0.611

Q: And the NES (gene set KEGG_LYSOSOME)?
A: 2.224

Q: What about the ES [23] of the same molecule?
A: 0.393

Q: And the NES [23]?
A: 1.504

Q: What about the ES (gene set KEGG_MELANOGENESIS) of the same molecule?
A: 0.526

Q: What about the NES (gene set KEGG_MELANOGENESIS) of the same molecule?
A: 1.713

Q: And the ES [24]?
A: 0.530

Q: What about the NES [24] of the same molecule?
A: 1.631

Q: And the ES [25]?
A: 0.464

Q: What about the NES [25] of the same molecule?
A: 1.705

Q: What about the ES [26] of the same molecule?
A: 0.424

Q: And the NES [26]?
A: 1.536

Q: What about the ES [27] of the same molecule?
A: 0.613

Q: What about the NES [27] of the same molecule?
A: 1.657

Q: And the ES [28]?
A: 0.583

Q: And the NES [28]?
A: 1.733

Q: And the ES (gene set KEGG_PROSTATE_CANCER)?
A: 0.445

Q: What about the NES (gene set KEGG_PROSTATE_CANCER) of the same molecule?
A: 1.564

Q: What about the ES [29] of the same molecule?
A: 0.525

Q: And the NES [29]?
A: 1.529

Q: And the ES [30]?
A: 0.535

Q: And the NES [30]?
A: 1.642

Q: And the ES [31]?
A: 0.689

Q: And the NES [31]?
A: 2.185

Q: And the ES [32]?
A: 0.491

Q: What about the NES [32] of the same molecule?
A: 1.536

Q: What about the ES (gene set LEONARD_HYPDXIA) of the same molecule?
A: 0.811

Q: And the NES (gene set LEONARD_HYPDXIA)?
A: 2.480

Q: And the ES (gene set LE_EGR2_TARGETS_DN)?
A: 0.689

Q: And the NES (gene set LE_EGR2_TARGETS_DN)?
A: 2.287

Q: And the ES [33]?
A: 0.678

Q: What about the NES [33] of the same molecule?
A: 2.520

Q: What about the ES (gene set QI_HYPDXIA) of the same molecule?
A: 0.624

Q: And the NES (gene set QI_HYPDXIA)?
A: 2.258

Q: What about the ES (gene set REACTOME_AMYLO1DS) of the same molecule?
A: 0.753

Q: What about the NES (gene set REACTOME_AMYLO1DS) of the same molecule?
A: 2.309

Q: And the ES [34]?
A: 0.913

Q: And the NES [34]?
A: 2.477

Q: What about the ES [35] of the same molecule?
A: 0.820

Q: And the NES [35]?
A: 2.377

Q: What about the ES [36] of the same molecule?
A: 0.651

Q: What about the NES [36] of the same molecule?
A: 2.246

Q: What about the ES [37] of the same molecule?
A: 0.921

Q: What about the NES [37] of the same molecule?
A: 2.469

Q: What about the ES [38] of the same molecule?
A: 0.642

Q: What about the NES [38] of the same molecule?
A: 2.380

Q: What about the ES [39] of the same molecule?
A: 0.615

Q: And the NES [39]?
A: 2.339

Q: What about the ES (gene set ZHANG_TLX_TARGETS_UP) of the same molecule?
A: 0.710

Q: What about the NES (gene set ZHANG_TLX_TARGETS_UP) of the same molecule?
A: 2.353

Q: What about the “log2FC ABCA1” value [40] of the same molecule?
A: −1.14

Q: And the “log2FC AGAP6” value [40]?
A: −0.85

Q: And the “log2FC AKAP5” value [40]?
A: −0.77

Q: What about the “log2FC CACNG8” value [40] of the same molecule?
A: −0.75

Q: And the “log2FC CCND1” value [40]?
A: −0.67

Q: And the “log2FC FERMT1” value [40]?
A: −0.91

Q: What about the “log2FC GPR75-ASB3” value [40] of the same molecule?
A: −0.89

Q: And the “log2FC GPR135” value [40]?
A: −1.30

Q: And the “log2FC HRH4” value [40]?
A: −1.09

Q: And the “log2FC MX2” value [40]?
A: −0.78

Q: And the “log2FC NEXN” value [40]?
A: −0.76

Q: And the “log2FC NOG” value [40]?
A: −0.93

Q: What about the “log2FC NOXRED1” value [40] of the same molecule?
A: −0.73

Q: And the “log2FC NPIPB11” value [40]?
A: −0.67

Q: And the “log2FC NPR2” value [40]?
A: −1.08

Q: What about the “log2FC NTSR1” value [40] of the same molecule?
A: −0.89

Q: What about the “log2FC PTCH2” value [40] of the same molecule?
A: −0.72

Q: And the “log2FC RFLNB” value [40]?
A: −0.79

Q: And the “log2FC SPDYA” value [40]?
A: −1.18

Q: And the “log2FC SYCE2” value [40]?
A: −0.98

Q: And the “log2FC TAS2R20” value [40]?
A: −0.81

Q: What about the “log2FC TNS4” value [40] of the same molecule?
A: −1.05

Q: What about the “log2FC TSPAN4” value [40] of the same molecule?
A: −0.68

Q: What about the “log2FC TXNRD3NB” value [40] of the same molecule?
A: −0.72

Q: What about the “log2FC ZDHHC11” value [40] of the same molecule?
A: −0.86

Source: patent US20220081412A1, “QUINOLINYL-PYRAZINE-CARBOXAMIDE COMPOUNDS AND USES THEREOF” (The Regents of the University of Michigan, priority 2018, published 2022)
